{"source": "patent US10640466B2", "about": "“Anthracene based compounds and their uses” (UNIVERSITY OF HERTFORDSHIRE HIGHER EDUCATION CORPORATION, priority 2015, dated 2020)", "key": {"[1]": {"molecular_target": "T1, S100P/RAGE function (Homo sapiens, UniProt P25815)", "T1 sequence (P25815 1-95)": "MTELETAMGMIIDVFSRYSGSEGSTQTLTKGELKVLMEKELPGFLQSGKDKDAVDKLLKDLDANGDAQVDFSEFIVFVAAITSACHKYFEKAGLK", "conditions": "in vitro studies; cited from earlier work"}, "[2]": {"system": "Panc-1 cells", "experiment": "Matrigel invasion assay, Panc-1", "type": "cell-based, Human", "conditions": "data not shown", "experimental": "(§1) Compound 2 was one of seventeen compounds from the virtual screen that were subjected to a Matrigel invasion assay (Corning®, USA) screening against BxPC-3 and Panc-1 pancreatic cancer cells.\n(§2) All reagents for in vitro studies were purchased from Sigma Aldrich (Dorset, UK) unless otherwise specified. Human pancreatic cancer cells, Panc-1 (ATCC® CRL-1469™) and BxPC-3 (ATCC® CRL-1687™), were purchased from LGC Standards (LGC Ltd., Middlesex, UK). Both were cultured in their respective culture medium—Dulbecco Modified Eagle Medium (DMEM) for Panc-1 and RPMI-1640 for BxPC-3 supplemented with 10% v/v Foetal Bovine Serum (FBS), 200U Penicillin/Streptomycin solution, and 2 mM L-glutamine. Both cells were maintained at 37° C. in a 5% humidified CO2 atmosphere and passaged at least three times a week when they have reached about 70% confluency using a standardised trypsinisation protocol. […]\n(§3) Matrigel invasion assay were carried out using transwell inserts with 8-μm pore size (BD-Bioscience, Oxford, UK) and Biocoat Matrigel Invasion plates (BD-Bioscience, Oxford, UK). […] The number of cells from five adjacent fields of view from each of the membranes were counted at a ×10 magnification to obtain the average number of cells per field. Data are expressed as the percent invasion through the Matrigel matrix and membrane relative to the invasion through the control membrane."}, "[3]": {"system": "BxPC-3 cells", "experiment": "Matrigel invasion assay, BxPC-3", "type": "cell-based, Human", "conditions": "48 h", "experimental": "FIG. 2 illustrates the effect of 2 and cromolyn (100 μM) BxPC-3 invasion. FIG. 2A illustrates the results when compound 2 was added to serum-free medium in the upper compartment of Matrigel invasion chamber along with the BxPC-3 cells; while media with 10% serum was added to lower chamber. After 48 hours, cells that had invaded onto the lower surface of the membrane were stained using Giemsa stain and cells in 5 different fields were counted for invasion studies. Results are expressed as the mean±SEM. P value of <0.05 (*), <0.01 (**) and <0.001 (***) was determined relative to control using 2-Way ANOVA. Photographs of representative membranes for cells after Giemsa staining when the cells were exposed in FIGS. 2B, 2C, 2D and 2E;\nas §1\nas §2, with “L-glutamine.” for “L-glutamine. Both cells were maintained at 37° C. in a 5% humidified CO2 atmosphere and passaged at least three times a week when they have reached about 70% confluency using a standardised trypsinisation protocol.”\nas §3"}, "[4]": {"system": "BxPC-3 cells", "experiment": "MTS cell proliferation assay, BxPC-3", "type": "cell-based, Human", "conditions": "for anti-proliferative effect on BxPC-3: 1 and 10 μM", "experimental": "(§4) FIG. 3 illustrates the anti-proliferative effect of cromolyn on pancreatic cancer cells. FIG. 3A illustrates BxPC-3, and FIG. 3B illustrates Panc-1 cells. Cells were seeded overnight (10^4 cells/well) in 96 well plates in complete medium supplemented with 10% v/v FBS, 2 mM L-glutamine and 200 U Penicillin/Streptomycin solution. Compounds were serially diluted into the wells and cell proliferation assessed using MTS assay after 24, 48, and 72 hours. Results are expressed as mean±SEM with n=4. P value of <0.05 (*), <0.01 (**), <0.001 (***) and <0.0001 (****) was determined relative to control using 2-Way ANOVA. Post-test comparisons were made using Bonferroni test at 95% confidence interval;\nFIG. 4 illustrates the anti-proliferative effects of compounds 2 (A), 3 (B), 8 (C), 26 (D) and 7 (E) on BxPC-3 cells. BxPC-3 cells were seeded overnight (10^4 cells/well) in 96-well plates in complete RPMI-1640 medium supplemented with 10% v/v FBS, 2 mM L-glutamine and 200 U Penicillin/Streptomycin solution. Compounds were serially diluted into the wells and cell proliferation assessed using MTS assay after 24, 48, and 72 hours. Results are expressed as mean±SEM with n=4. P value of <0.05 (*), <0.01 (**), <0.001 (***) and <0.0001 (****) was determined relative to control using 2-Way ANOVA. Post-test comparisons were made using Bonferroni test at 95% confidence interval;\n(§5) All reagents for in vitro studies were purchased from Sigma Aldrich (Dorset, UK) unless otherwise specified. Human pancreatic cancer cells, Panc-1 (ATCC® CRL-1469™) and BxPC-3 (ATCC® CRL-1687™), were purchased from LGC Standards (LGC Ltd., Middlesex, UK). Both were cultured in their respective culture medium—Dulbecco Modified Eagle Medium (DMEM) for Panc-1 and RPMI-1640 for BxPC-3 supplemented with 10% v/v Foetal Bovine Serum (FBS), 200U Penicillin/Streptomycin solution, and 2 mM L-glutamine. Both cells were maintained at 37° C. in a 5% humidified CO2 atmosphere and passaged at least three times a week when they have reached about 70% confluency using a standardised trypsinisation protocol. Cromolyn was purchased as a sodium salt while compounds 2, 3, 7, 8 and 26 were synthesised, characterised and purified at the University of Hertfordshire. To prepare stock concentrations (10 mM), cromolyn was dissolved in distilled water while compounds 2, 3, 7, 8 and 26 were dissolved in DMSO.\n(§6) Pancreatic cancer cells (1×10^5 cells/mL) in 100 μL complete cell culture medium were plated in 96-well plates (Sigma-Aldrich, Poole, UK) and incubated overnight at 37° C., 5% CO2 atmosphere. Cromolyn and compounds 2, 3, 7, 8 and 26 were prepared from stocks of 10 mM in serum-free medium and serially diluted to give 1, 10, 100 and 1000 μM. Control samples for this study included cells without any drugs, cell samples with DMSO at the corresponding concentration(s) and media-only samples. Cells were incubated with test compounds for 24, 48 and 72 h. At each time point i.e. 24, 48 and 72 h, CellTiter 960 AQueous Non-Radioactive Cell Proliferation Assay (MTS) (Promega, UK) was added to each well (1:5). Plates were incubated for 90 minutes before reading the absorbance at 492 nm using a Multiskan Ascent 96/384 plate reader (Thermo Scientific, Loughborough, UK). The experiments were repeated three times.\nFor data analysis, background noise (media only wells) was subtracted from all wells. DMSO absorbance at 1, 10, 100 and 1000 μM was subtracted from wells with sample compounds before an average of all four replicates was taken. Data is plotted as mean from three repeats ±SEM with p value set at 0.05."}, "[5]": {"system": "Panc-1 cells", "experiment": "MTS cell proliferation assay, Panc-1", "type": "cell-based, Human", "experimental": "as §4\nFIG. 5 illustrates anti-proliferative effect of compounds 2 (A), 3 (B), 8 (C), 26 (D) and 7 (E) on Panc-1 cells. Panc-1 cells were seeded overnight (10^4 cells/well) in 96-well plates in complete DMEM medium supplemented with 10% v/v FBS, 1% v/v L-glutamine and 200 U Penicillin/Streptomycin solution. Compounds were serially diluted into the wells and cell proliferation analysed using MTS assay after 24, 48, and 72 hours. Results are expressed as mean±SEM with n=4. P value of <0.05 (*), <0.01 (**), <0.001 (***) and <0.0001 (****) was determined relative to control using 2-Way ANOVA. Post-test comparisons were made Bonferroni test at 95% confidence interval; and\nas §5, with “To prepare stock concentrations (10 mM), cromolyn was dissolved in distilled water while compounds 2, 3, 7, 8 and 26 were dissolved in DMSO.” left out\nPancreatic cancer cells (1×10^5 cells/mL) in 100 μL complete cell culture medium were plated in 96-well plates (Sigma-Aldrich, Poole, UK) and incubated overnight at 37° C., 5% CO2 atmosphere. […] Plates were incubated for 90 minutes before reading the absorbance at 492 nm using a Multiskan Ascent 96/384 plate reader (Thermo Scientific, Loughborough, UK). […]\nFor data analysis, background noise (media only wells) was subtracted from all wells. DMSO absorbance at 1, 10, 100 and 1000 μM was subtracted from wells with sample compounds before an average of all four replicates was taken. […]"}, "[6]": {"experiment": "Solubility in the culture media of the proliferation assay", "type": "physicochemical", "conditions": "at 100 μM and above", "experimental": "as §6"}, "[7]": {"system": "BxPC-3 cells", "experiment": "Trypan blue counting of BxPC-3 cells", "type": "cell-based, Human", "conditions": "1 μM"}, "[8]": {"molecular_target": "T2, S100P binding to RAGE (Homo sapiens, UniProt P25815)", "T2 sequence (P25815 1-95)": "T1 sequence (P25815 1-95)", "experiment": "S100P/RAGE functional assay (ELISA of S100P-RAGE binding)", "conditions": "initial results", "experimental": "FIGS. 6A to 6H illustrate the effect of drugs on the binding between 1 μM S100P and 30 nM RAGE in ELISA assay wherein n=3 from one plate.\nELISA assay of S100P-RAGE binding was carried out using the method of Padilla et al. (Padilla, L., Dakhel, S., & Hernandez, J. (2014). S100 to receptor for advanced glycation end-products binding assay: Looking for inhibitors. Biochemical and Biophysical Research Communications, 446(1), 404-409. doi:10.1016/j.bbrc.2014.02.143). FIGS. 6A to 6H illustrate the effect of drugs on the binding between 1 μM S100P and 30 nM RAGE in ELISA assay wherein n=3 from one plate."}, "[9]": {"conditions": "in vivo; cited from earlier work"}, "[10]": {"conditions": "except at the higher concentration of 1000 μM"}}}
{"molecule": "5-methyl cromolyn", "values": [{"measurement": "concentration inhibiting S100P/RAGE function", "setting": "[1]", "value": 100, "unit": "nmol/L"}]}
{"molecule": "O=C(O)c1cccc(N2C(=O)C3C4c5ccccc5C([N+](=O)[O-])(c5ccccc54)C3C2=O)c1", "note": "(centres unmarked) [Compound 2, 3-(9-Nitro-12,14-dioxo-9,10-dihydro-9,10-[3,4]epipyrroloanthracen-13-yl)benzoic acid]", "values": [{"measurement": "effect on invasion of Panc-1 cells", "setting": "[2]", "value": "No effect"}, {"measurement": "reduction in invasion of BxPC-3 cells across the Matrigel matrix", "setting": "[3]; 100 μM", "value": 17, "unit": "%"}, {"measurement": "reduction in invasion of BxPC-3 cells across the Matrigel matrix", "setting": "[3]; 500 μM", "value": 100, "unit": "%"}, {"measurement": "inhibition of growth of BxPC-3 relative to control", "setting": "[4]; all three concentrations, after 72 h, p<0.001", "value": "noticeable inhibition of growth"}, {"measurement": "anti-proliferation effect on Panc-1 cells", "setting": "[5]", "value": "a similar effect was also observed"}]}
{"molecule": "CCOC(=O)c1cccc(N2C(=O)C3C4c5ccccc5C([N+](=O)[O-])(c5ccccc54)C3C2=O)c1", "note": "(centres unmarked) [Compound 3, Ethyl 3-(9-nitro-12,14-dioxo-9,10-dihydro-9,10-[3,4]epipyrroloanthracen-13-yl)benzoate]", "values": [{"measurement": "solubility issues in the culture media", "setting": "[6]", "value": "precipitating in the culture media"}, {"measurement": "anti-proliferative effect on BxPC-3 compared to 2", "setting": "[4]; after 24 h", "value": "more pronounced anti-proliferative effect"}, {"measurement": "state of BxPC-3 cells compared to the control", "setting": "[4]; after 48 h", "value": "the cells appear to be recovering albeit only slightly"}]}
{"molecule": "O=C1C2C3c4ccccc4C([N+](=O)[O-])(c4ccccc43)C2C(=O)N1c1ccccc1", "note": "(centres unmarked) [Compound 7, 9-Nitro-13-phenyl-9,10-dihydro-9,10-[3,4]epipyrroloanthracene-12,14-dione]", "values": [{"measurement": "solubility issues in the culture media", "setting": "[6]", "value": "precipitating in the culture media"}, {"measurement": "anti-proliferative effect on BxPC-3", "setting": "[4]", "value": "inhibited proliferation"}, {"measurement": "anti-proliferation effect on Panc-1 cells", "setting": "[5]", "value": "inhibition was unfortunately observed"}]}
{"molecule": "O=C(O)c1ccc(N2C(=O)C3C4c5ccccc5C([N+](=O)[O-])(c5ccccc54)C3C2=O)cc1", "note": "(centres unmarked) [Compound 8, 4-(9-Nitro-12,14-dioxo-9,10-dihydro-9,10-[3,4]epipyrroloanthracen-13-yl)benzoic acid]", "values": [{"measurement": "viability of BxPC-3 cells by trypan blue counting", "setting": "[7]", "value": "still viable"}, {"measurement": "solubility issues in the culture media", "setting": "[6]", "value": "precipitating in the culture media"}, {"measurement": "inhibition of S100P binding to RAGE", "setting": "[8]", "value": "nanomolar inhibition"}, {"measurement": "metabolic activity of BxPC-3 cells", "setting": "[4]; 1 μM", "value": "no metabolic activity was observed"}, {"measurement": "anti-proliferative effect on BxPC-3", "setting": "[4]", "value": "more pronounced"}]}
{"molecule": "O=C(O)c1cccc(N2C(=O)C3C4c5ccccc5C(c5ccccc54)C3C2=O)c1", "note": "(centres unmarked) [Compound 26, 3-(12,14-Dioxo-9,10-dihydro-9,10-[3,4]epipyrroloanthracen-13-yl)benzoic acid]", "values": [{"measurement": "anti-proliferative effect on BxPC-3", "setting": "[4]", "value": "inhibited proliferation"}, {"measurement": "anti-proliferation effect on Panc-1 cells", "setting": "[5]", "value": "inhibition was unfortunately observed"}]}
{"molecule": "O=C(O)c1cc(=O)c2c(OCC(O)COc3cccc4oc(C(=O)O)cc(=O)c34)cccc2o1", "note": "[cromolyn, reference compound]", "values": [{"measurement": "reduction in invasion of BxPC-3 cells across the Matrigel matrix", "setting": "[3]; 100 μM", "value": 20, "unit": "%"}, {"measurement": "bioavailability", "setting": "[9]", "value": "low bioavailability"}, {"measurement": "effect against the proliferation of BxPC-3 cells", "setting": "[4]; [10]", "value": "no significant effect"}, {"measurement": "effect against the proliferation of Panc-1 cells", "setting": "[5]; [10]", "value": "no significant effect"}]}
